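Where inhibition never reached the appropriate level, the endpoint shown equals the highest concentration tested. Otherwise, values were interpolated linearly from a five-concentration, 48-hour dose response in 96-well plates. The concentration for 50% growth inhibition is given as GI50.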 Active and inactive are the calls of the source. Rule as the data show it: active = GI50 up to about 1.1 µM and inactive = higher.
Legend:
Experiment in all cases: DTP human tumour cell line panel, 48 h
HCT-116 = system: HCT-116
SK-MEL-2 = system: SK-MEL-2
ACHN = system: ACHN
SK-OV-3 = system: SK-OV-3
DMS-273 = system: DMS-273
RXF 393 = system: RXF 393
SK-MEL-28 = system: SK-MEL-28
NCI-H23 = system: NCI-H23
SW-620 = system: SW-620
EKVX = system: EKVX
OVCAR-4 = system: OVCAR-4
KM-20L2 = system: KM-20L2
SNB-78 = system: SNB-78
K562 = system: K562
SF-295 = system: SF-295
HOP-18 = system: HOP-18
HCC 2998 = system: HCC 2998
HOP-62 = system: HOP-62
HCT-15 = system: HCT-15
LXFL 529 = system: LXFL 529
A549 = system: A549
SNB-75 = system: SNB-75
UACC-257 = system: UACC-257
DMS-114 = system: DMS-114
OVCAR-3 = system: OVCAR-3
UO-31 = system: UO-31
NCI-H460 = system: NCI-H460
A498 = system: A498
SNB-19 = system: SNB-19
786-0 = system: 786-0
SR = system: SR
HOP-92 = system: HOP-92
M19-MEL = system: M19-MEL
KM12 = system: KM12
IGROV-1 = system: IGROV-1
DLD-1 = system: DLD-1
RPMI-8226 = system: RPMI-8226
HT-29 = system: HT-29
U-251 = system: U-251
SN12C = system: SN12C
CCRF-CEM = system: CCRF-CEM
XF498 = system: XF498
HL-60 = system: HL-60
COLO 205 = system: COLO 205
UACC-62 = system: UACC-62
MOLT-4 = system: MOLT-4
SF-539 = system: SF-539
CAKI-1 = system: CAKI-1
OVCAR-8 = system: OVCAR-8
TK-10 = system: TK-10
SF-268 = system: SF-268
RXF 631 = system: RXF 631
NCI-H522 = system: NCI-H522
NCI-H226 = system: NCI-H226
M14 = system: M14
LOX IMVI = system: LOX IMVI
Malme-3M = system: Malme-3M
OVCAR-5 = system: OVCAR-5
SK-MEL-5 = system: SK-MEL-5

SMILES: COC12CCC(=O)C=C1c1ccccc1N2C(C)=O (stereo not drawn)
- GI50 (HCT-116): > 100 µM (inactive)
- GI50 (SK-MEL-2): > 100 µM (inactive)
- GI50 (ACHN): > 100 µM (inactive)
- GI50 (SK-OV-3): > 100 µM (inactive)
- GI50 (DMS-273): > 100 µM (inactive)
- GI50 (RXF 393): > 100 µM (inactive)
- GI50 (SK-MEL-28): > 100 µM (inactive)
- GI50 (NCI-H23): > 100 µM (inactive)
- GI50 (SW-620): > 100 µM (inactive)
- GI50 (EKVX): > 100 µM (inactive)
- GI50 (OVCAR-4): > 100 µM (inactive)
- GI50 (KM-20L2): > 100 µM (inactive)
- GI50 (SNB-78): > 100 µM (inactive)
- GI50 (K562): > 100 µM (inactive)
- GI50 (SF-295): > 100 µM (inactive)
- GI50 (HOP-18): > 100 µM (inactive)
- GI50 (HCC 2998): > 100 µM (inactive)
- GI50 (HOP-62): > 100 µM (inactive)
- GI50 (HCT-15): > 100 µM
- GI50 (LXFL 529): > 100 µM (inactive)
- GI50 (A549): > 100 µM (inactive)
- GI50 (SNB-75): > 100 µM (inactive)
- GI50 (UACC-257): > 100 µM (inactive)
- GI50 (DMS-114): > 100 µM (inactive)
- GI50 (OVCAR-3): > 100 µM (inactive)
- GI50 (UO-31): > 100 µM (inactive)
- GI50 (NCI-H460): > 100 µM (inactive)
- GI50 (A498): > 100 µM (inactive)
- GI50 (SNB-19): > 100 µM (inactive)
- GI50 (786-0): > 100 µM (inactive)
- GI50 (SR): > 100 µM (inactive)
- GI50 (HOP-92): < 0.01 µM (active)
- GI50 (M19-MEL): > 100 µM (inactive)
- GI50 (KM12): > 100 µM (inactive)
- GI50 (IGROV-1): > 100 µM (inactive)
- GI50 (DLD-1): > 100 µM (inactive)
- GI50 (RPMI-8226): > 100 µM (inactive)
- GI50 (HT-29): > 100 µM (inactive)
- GI50 (U-251): > 100 µM (inactive)
- GI50 (SN12C): > 100 µM (inactive)
- GI50 (CCRF-CEM): > 100 µM (inactive)
- GI50 (XF498): > 100 µM (inactive)
- GI50 (HL-60): > 100 µM (inactive)
- GI50 (COLO 205): > 100 µM (inactive)
- GI50 (UACC-62): > 100 µM (inactive)
- GI50 (MOLT-4): > 100 µM (inactive)
- GI50 (SF-539): > 100 µM (inactive)
- GI50 (CAKI-1): > 100 µM (inactive)
- GI50 (OVCAR-8): > 100 µM (inactive)

SMILES: CCOC(=O)C(=O)Nc1cc(Cl)c(Cl)cc1Cl
- GI50 (HCT-116): > 100 µM (inactive)
- GI50 (SK-MEL-2): > 100 µM (inactive)
- GI50 (ACHN): > 100 µM (inactive)
- GI50 (SK-OV-3): > 100 µM (inactive)
- GI50 (DMS-273): > 100 µM (inactive)
- GI50 (RXF 393): > 100 µM (inactive)
- GI50 (SK-MEL-28): > 100 µM (inactive)
- GI50 (NCI-H23): > 100 µM (inactive)
- GI50 (TK-10): > 100 µM (inactive)
- GI50 (SW-620): > 100 µM (inactive)
- GI50 (EKVX): > 100 µM (inactive)
- GI50 (OVCAR-4): > 100 µM (inactive)
- GI50 (SF-268): > 100 µM (inactive)
- GI50 (KM-20L2): > 100 µM (inactive)
- GI50 (SNB-78): > 100 µM (inactive)
- GI50 (K562): > 100 µM (inactive)
- GI50 (RXF 631): > 100 µM (inactive)
- GI50 (SF-295): > 100 µM (inactive)
- GI50 (NCI-H522): > 100 µM (inactive)
- GI50 (NCI-H226): > 100 µM (inactive)
- GI50 (HCC 2998): > 100 µM (inactive)
- GI50 (HOP-62): > 100 µM (inactive)
- GI50 (M14): > 100 µM (inactive)
- GI50 (HCT-15): > 100 µM
- GI50 (LXFL 529): > 100 µM (inactive)
- GI50 (LOX IMVI): > 100 µM (inactive)
- GI50 (SNB-75): > 100 µM (inactive)
- GI50 (UACC-257): > 100 µM (inactive)
- GI50 (DMS-114): > 100 µM (inactive)
- GI50 (OVCAR-3): > 100 µM (inactive)
- GI50 (UO-31): > 100 µM (inactive)
- GI50 (NCI-H460): > 100 µM (inactive)
- GI50 (Malme-3M): > 100 µM (inactive)
- GI50 (SNB-19): > 100 µM (inactive)
- GI50 (786-0): > 100 µM (inactive)
- GI50 (HOP-92): > 100 µM (inactive)
- GI50 (M19-MEL): > 100 µM (inactive)
- GI50 (KM12): > 100 µM (inactive)
- GI50 (IGROV-1): > 100 µM (inactive)
- GI50 (OVCAR-5): > 100 µM (inactive)
- GI50 (SK-MEL-5): > 100 µM (inactive)
- GI50 (RPMI-8226): > 100 µM (inactive)
- GI50 (HT-29): > 100 µM (inactive)
- GI50 (U-251): > 100 µM (inactive)
- GI50 (SN12C): > 100 µM (inactive)
- GI50 (COLO 205): > 100 µM (inactive)
- GI50 (UACC-62): > 100 µM (inactive)
- GI50 (MOLT-4): > 100 µM (inactive)
- GI50 (SF-539): > 100 µM (inactive)
- GI50 (CAKI-1): > 100 µM (inactive)
- GI50 (OVCAR-8): > 100 µM (inactive)

SMILES: O=[N+]([O-])c1ccc(Cl)c(C2CC(c3cccc4ccccc34)=Nc3ccccc3[S+]2[O-])c1 (stereo not drawn)
- GI50 (HCT-116): 9.73 µM (inactive)
- GI50 (SK-MEL-2): 15.1 µM (inactive)
- GI50 (ACHN): 18.5 µM (inactive)
- GI50 (SK-OV-3): > 100 µM (inactive)
- GI50 (DMS-273): 19.2 µM (inactive)
- GI50 (RXF 393): 7.05 µM (inactive)
- GI50 (SK-MEL-28): 19.4 µM (inactive)
- GI50 (NCI-H23): 8.75 µM (inactive)
- GI50 (TK-10): 31.8 µM (inactive)
- GI50 (SW-620): 7.85 µM (inactive)
- GI50 (EKVX): > 57.5 µM (inactive)
- GI50 (OVCAR-4): 22 µM (inactive)
- GI50 (SF-268): 18.4 µM (inactive)
- GI50 (KM-20L2): 20.2 µM (inactive)
- GI50 (SNB-78): 11.4 µM (inactive)
- GI50 (K562): 3.97 µM (inactive)
- GI50 (RXF 631): 29.4 µM (inactive)
- GI50 (SF-295): 18.2 µM (inactive)
- GI50 (NCI-H522): 7.23 µM (inactive)
- GI50 (NCI-H226): 21.7 µM (inactive)
- GI50 (HOP-18): 24.2 µM (inactive)
- GI50 (HCC 2998): 14.8 µM (inactive)
- GI50 (HOP-62): 21.8 µM (inactive)
- GI50 (M14): 17.7 µM (inactive)
- GI50 (HCT-15): 13.6 µM
- GI50 (LXFL 529): 13.3 µM (inactive)
- GI50 (A549): 20 µM (inactive)
- GI50 (LOX IMVI): 15.4 µM (inactive)
- GI50 (SNB-75): 5.86 µM (inactive)
- GI50 (UACC-257): 17 µM (inactive)
- GI50 (DMS-114): 14.9 µM (inactive)
- GI50 (OVCAR-3): 22.6 µM (inactive)
- GI50 (UO-31): 17.7 µM (inactive)
- GI50 (NCI-H460): 19.4 µM (inactive)
- GI50 (Malme-3M): 18.9 µM (inactive)
- GI50 (A498): 24.2 µM (inactive)
- GI50 (SNB-19): 29 µM (inactive)
- GI50 (786-0): 9.93 µM (inactive)
- GI50 (SR): 10.5 µM (inactive)
- GI50 (HOP-92): 0.519 µM (active)
- GI50 (M19-MEL): 20.6 µM (inactive)
- GI50 (KM12): 18.9 µM (inactive)
- GI50 (IGROV-1): 28.2 µM (inactive)
- GI50 (DLD-1): 9.55 µM (inactive)
- GI50 (OVCAR-5): 29.5 µM (inactive)
- GI50 (SK-MEL-5): 14.4 µM (inactive)
- GI50 (RPMI-8226): 2.21 µM (inactive)
- GI50 (HT-29): 10.9 µM (inactive)
- GI50 (U-251): 13.1 µM (inactive)
- GI50 (SN12C): 21 µM (inactive)
- GI50 (CCRF-CEM): 2.4 µM (inactive)
- GI50 (HL-60): 4.89 µM (inactive)
- GI50 (COLO 205): > 56.6 µM (inactive)
- GI50 (UACC-62): 10.6 µM (inactive)
- GI50 (MOLT-4): 3.68 µM (inactive)
- GI50 (SF-539): 13.7 µM (inactive)
- GI50 (CAKI-1): 13.2 µM (inactive)
- GI50 (OVCAR-8): 8.77 µM (inactive)

Reference: ChEMBL document CHEMBL1201862, “PubChem BioAssay data set” (2004)
